Calls of active or inactive are those of the source.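 The calls were made as follows: active = AC50 no more than tenfold above the top dose tested, or full inhibition at every dose with a flat fit (cut at about 19 µM in these data); inconclusive = flat curve fit with inhibition between 30% and 70%, or poor fit; inactive = AC50 more than tenfold above the top dose tested.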
Test system: HMLE_sh_eGFP viability, CellTiter-Glo luminescence, 72 h
Test: viability loss of HMLE_sh_eGFP cells – cell-based, luminescence, counter-screen for HMLE_sh_ECad selective toxicity project, dose response (AID 463074);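 also: counterscreen control line to flag general toxicity for the HMLE_sh_ECad screen; potency for loss of viability as luminescence drops below DMSO wells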

SMILES | AC50
CCCCCC(=O)Nc1nc(C)c(-c2csc(Nc3cc(OC)ccc3OC)n2)s1 | 2.11 µM
CCN(CC)CCCNC(=O)c1cc2c(Cl)nc3ccccc3c2s1 | 5.16 µM
O=C(N/N=C/c1cccc(O)c1)c1ccc(COc2ccccc2Br)cc1 | 6.42 µM
COC(=O)C(Cc1ccc(N(CCCl)CCCl)cc1)N=Cc1ccccc1O (stereo not given) | 2.54 µM
O=C(CNC(=O)C1COc2ccccc2O1)N/N=C/c1ccc(O)cc1O (stereo not given) | 5.21 µM
CC1CCCCN1c1cc(C#N)c(C#N)cc1[N+](=O)[O-] (stereo not given) | 1.77 µM
Cc1ccccc1OCC(O)Cn1c2ccccc2c2ccccc21 (stereo not given) | 6.78 µM
O=C(COCC(=O)Nc1cccc(C(F)(F)F)c1)Nc1cccc(C(F)(F)F)c1 | 7.59 µM
NC(=O)CC(NC(=O)Cc1cccc2ccccc12)c1ccc(NCc2ccc(F)c(F)c2)c([N+](=O)[O-])c1 (stereo not given) | 10.7 µM
NCC(c1ccc(Cl)cc1Cl)c1c[nH]c2ccccc12 (stereo not given) | 11.9 µM
Oc1ccc(N=Nc2ccc(Br)cc2)c(O)c1 | 17.3 µM
O=C(O)c1cccc(S(=O)(=O)NNc2ccccc2C(F)(F)F)c1 | 11.3 µM
CCN(CC(=O)NC1CCCCC1)S(=O)(=O)c1ccc(Cl)cc1 | > 19.5 µM (inactive)
CC(=O)Oc1ccc(-c2ccc(C(=O)Nc3cccc(S(=O)(=O)N4CCOCC4)c3)cc2)cc1 | 1.46 µM
Nc1ccccc1N=Cc1c(O)n(CCC2=CCCCC2)c(=O)[nH]c1=O | > 19.5 µM (inactive)
CC(=O)NC1=C(C#N)C(c2ccccc2)c2c(ccc3ccccc23)O1 (stereo not given) | 3.44 µM
O=[N+]([O-])c1ccc(S(=O)(=O)Nc2ccc(-c3csc(-c4ccccc4)n3)cc2)cc1 | 4.06 µM
C=C(C)COc1ccc(-c2[nH]ncc2-c2ccc(OC)c(OC)c2)c(O)c1 | 4.5 µM
O=C(N/N=C(\Cc1ncc[nH]1)c1ccccc1)c1ccncc1 | 3.85 µM
COc1ccc(OC)c(C(=O)/C=C/c2ccccc2C(F)(F)F)c1 | 6.67 µM
Cc1ccc(-c2csc3ncnc(NS(=O)(=O)c4ccc(Cl)cc4)c23)cc1 | 11.6 µM
Cc1c(C(=O)Nc2ccc(-c3nnc4n3CCCCC4)cc2)oc2c1ccc1ccccc12 | 5.66 µM
O=C(NCc1ccco1)c1ccc2c(c1)N(Cc1ccccc1)CCS2 | > 19.5 µM (inactive)
Cc1ccc(C)c(Cc2c(C)nc3c(C(=O)NCc4ccc5c(c4)OCO5)cnn3c2C)c1 | 19 µM
CCCCCCSc1cccc(-c2nc3ccccn3c2NCc2ccccc2)c1 | 5.27 µM
CC(=O)c1ccc(N2CCC(c3cc(-c4ccc(Cl)cc4)n[nH]3)CC2)c([N+](=O)[O-])c1 | 3.62 µM
CCOC(=O)c1c(-c2ccccc2)csc1NC(=O)c1nn(CC)cc1Br | 0.478 µM

SMILES | AC50
N#CCSc1nc2c(c(=O)n1Cc1ccco1)C1(CCCC1)Cc1ccccc1-2 | 0.468 µM
Cc1ccc(Oc2c(C(N)=O)cc([N+](=O)[O-])cc2[N+](=O)[O-])cc1 | 3.84 µM
COc1cc(Nc2ccc(C)cc2)c([N+](=O)[O-])nc1[N+](=O)[O-] | 5.74 µM
CC(C)C1C(c2ccccc2)N(C)C(c2ccccc2)CC1(O)c1ccccc1 (stereo not given) | 3.35 µM
Cc1cc(C)c(NC(=O)CSCc2c(C)noc2C)c(C)c1 | > 19.5 µM (inactive)
O=S(=O)(Nc1ccc(-n2cccc2)cc1)c1ccc(Cl)c(Cl)c1 | 5.21 µM
O=c1cc(-c2ccccc2)[nH]n1-c1nc2ccccc2s1 | 5.53 µM
C/C(NC(=O)c1cccc(F)c1)=C1/C(=O)C[C@@H]2[C@H]1C2(C)C | 2.13 µM
CN(/N=C/c1cc(Br)cc(Br)c1O)c1cccc(C(F)(F)F)n1 | 12.7 µM
CCN(CC)C1CCN(C(=O)c2cc(COc3ccc(F)cc3Cl)on2)C1 (stereo not given) | 15.4 µM
Cc1cc(C)c(O)c(-c2n[nH]c3c2C(c2cccc(O)c2)N(Cc2ccco2)C3=O)c1 (stereo not given) | 6.73 µM
Cc1cccc(C(=O)NNC2=C(C(=O)C(F)(F)F)CCC2)c1O | 3.91 µM
COc1ccc(OC)c(-c2nnc3n2N=C(c2ccc(OC(F)F)c(OCC4CC4)c2)CS3)c1 | 4.26 µM
CN(C)CCNc1nc2sc3c(c2c(=O)n1-c1ccccc1)CCCCC3 | 3.22 µM
C=CCn1c(SCc2c(C)noc2C)nc2ccccc2c1=O | 1.78 µM
OCCCCC#Cc1c(-c2ccsc2)sc2ccccc12 | 5.56 µM
Oc1ccc(/C=N/Nc2ccc(C(F)(F)F)cn2)c(O)c1 | 6.58 µM
Nc1c(S(=O)(=O)c2cccs2)c2nc3ccccc3nc2n1/N=C/c1cccc(O)c1 | 3.87 µM
Cc1ccc(-c2cc(-c3ccccc3C)[nH]n2)c(O)c1 | 8.64 µM
CN(C)CCCn1c(=S)[nH]c2sc3c(c2c1=O)CCCC3 | > 19.5 µM (inactive)
C=C[C@@H]1c2cccc(C)c2N(S(=O)(=O)c2ccc(C)cc2)[C@H](c2ccc(OC(C)=O)cc2)C1(C#N)C#N | 6.71 µM
COC(=O)Nc1ccc(S(=O)(=O)N2c3ccccc3CCC2C)cc1 (stereo not given) | 1.42 µM
O=S(=O)(Nc1ccc(O)c2ccccc12)c1ccc(OC(F)(F)F)cc1 | 12.5 µM
Cc1ccc(-c2ccc([C@H]3[C@@H]4C=CCC[C@@]4(C)C(=O)N3Cc3ccccc3)c(F)c2)cc1 | 5.32 µM
O=C1c2cccc3cccc(c23)C(=O)N1CCN1CCN(CC(O)COc2ccc3ccccc3c2)CC1 (stereo not given) | 6.81 µM
CCCCCCSc1ccc(-c2nc3cnccn3c2NCCCC)cc1 | 4.07 µM
Cc1ccc(C2(c3noc(CN4CCC(c5ccncc5)CC4)n3)CCCC2)cc1 | 2.32 µM

SMILES | AC50
C=C(C)COc1ccc(-c2nc(N)ncc2-c2ccc(Br)cc2)c(O)c1 | 7.37 µM
CC(C)(c1ccccc1)c1ccc(OCCCN2CCNCC2)cc1 | 0.745 µM
COc1ccc(-c2sc3cc(OC)c(OC)cc3c2C#CC2(O)CCCCC2)cc1 | 5.19 µM
CSc1c(SCc2ccccc2)cnn(-c2ccccc2)c1=O | 5.71 µM
C=C(C)COc1ccc(-c2n[nH]c(C)c2-c2ccc(Br)cc2)c(O)c1 | 3.25 µM
COc1ccc(OC)c(NC(=O)NNC(=O)COc2ccc(-c3ccccc3)cc2)c1 | > 19.5 µM (inactive)
O=[N+]([O-])c1nn(-c2ccc3c(c2)OCCO3)n(O)c1=NCCC1=CCCCC1 | 17.9 µM
Cc1cccc(C(=O)N/N=C/c2ccc(OC3CSC3)cc2)c1 | 2.73 µM
O=C(/C=C\c1ccccc1)NCC(=O)N/N=C/c1ccc(O)cc1O | 12 µM
CCn1c2ccccc2c2cc(NC(=O)c3cc(OC)cc(OC)c3)ccc21 | 0.258 µM
O=C1NC(=Nc2ccc(Cl)cc2)SC1Cc1cccc(Cl)c1Cl (stereo not given) | > 19.5 µM (inactive)
Cc1ccc(-c2nc(CS(=O)CC(=O)NCc3ccc4c(c3)OCO4)c(C)o2)cc1 (stereo not given) | > 19.5 µM (inactive)
COc1ccc(-c2sc3ccccc3c2-c2ccc(OCCN3CCCCC3)cc2)cc1 | 1.4 µM
COc1ccc(Cc2nnc(N/N=C/c3ccc(O)cc3O)[nH]c2=O)cc1OC | 8.14 µM
O=C(Nc1ccc(Cn2cccn2)cc1)c1ccc(COc2cccc(Br)c2)cc1 | 0.302 µM
O=C(Nc1ccc2c(c1)OCO2)c1cc(-c2cccc(O)c2)on1 | 1.65 µM
FC(F)(F)c1cc(CCN2CCNC[C@@H]2Cc2ccccc2)cc(C(F)(F)F)c1 | 13.7 µM
CC1=CC(C)[C@H](/C=N/n2c(=O)[nH]c3c([nH]c4ccc(Br)cc43)c2=O)C(C)C1 (stereo not given in full) | 1.46 µM
O=C(/C=C/c1cc2ccccc2o1)c1ccccc1O | 10.1 µM
O=C(Nc1ccccc1)Nc1ccc(O)c2ccccc12 | 3.94 µM
CCOC(=O)c1cnc(-n2nc(C)cc2C)nc1NNc1nc(-c2ccccc2)cc(-c2ccccc2)n1 | 3.25 µM
OC(CN1CCCCC1)Cn1c2ccc(Cl)cc2c2cc(Cl)ccc21 (stereo not given) | 7.56 µM
O=C(CSc1nc(-c2ccccc2)cc(C(F)(F)F)n1)c1cccc([N+](=O)[O-])c1 | 20.4 µM
CCOCCCNC(=O)/C(C#N)=C/c1ccc([N+](=O)[O-])o1 | 8.21 µM
CCOC(=O)C(=NCCCN1CCOCC1)NNc1cccc(C(F)(F)F)c1 | 9.13 µM
NC(=O)c1cc([N+](=O)[O-])ccc1NCc1ccc(O)cc1 | 3.1 µM
O=S(=O)(Nc1nc2ccccc2nc1Nc1ccc(N2CCOCC2)cc1)c1cc(Cl)ccc1Cl | 4.23 µM

SMILES | AC50
COc1ccc(NC(=O)c2ccc(COc3ccccc3Br)o2)c(OC)c1 | 3.67 µM
Cc1cccc(-n2cc(-c3ccccc3)c3c(N4CCOCC4)ncnc32)c1 | 4.59 µM
Cc1ccc(C)c(N2CCN(C(=S)Nc3ccc4nc(N5CCN(C)CC5)cc(C)c4c3)CC2)c1 | 7.7 µM
CCN(CC)c1ccc(S(=O)(=O)Nc2cc(Cl)ccc2Cl)cc1NC(=S)NC(=O)C1CCCC1 | 2.06 µM
CN(C)/N=C/C=C1\CCC/C(=C\c2ccc(F)c(F)c2)C1=O | 10.5 µM
O=S(=O)(Nc1ccc(O)c(Sc2nc3ccccc3s2)c1)c1cccc2ccccc12 | 5.83 µM
O=C(CSc1nc2nc(-c3cccs3)cc(C(F)(F)F)c2c(=O)[nH]1)Nc1c(F)c(F)c(F)c(F)c1F | 3.43 µM
CCC1=NN(C(=O)c2ccc(Cl)cc2)C(O)(c2ccc(C)cc2)C1 (stereo not given) | 7.99 µM
CCNS(=O)(=O)c1ccc(NC(=O)Nc2cccc(C(F)(F)F)c2)cc1 | 13.5 µM
C=C(CC[C@@H](O)C(C)(C)O)[C@H]1CC[C@]2(C)[C@@H]1CCC1[C@@]3(C)CCC(=O)C(C)(C)C3CC[C@]12C (stereo not given in full) | 2.52 µM
COC(=O)Nc1ccc(S(=O)(=O)N2CCCc3ccccc32)cc1 | 2.21 µM
CC(C)c1cc(-c2cc(-c3ccccc3)on2)nc(NC2CCCC2)n1 | 7.45 µM
Cc1cc2oc(=O)c(CC(=O)NCCCN(C)C)c(C)c2c2occ(C(C)(C)C)c12 | 2.85 µM
O=c1c2ccccc2nc2n1CCc1c-2[nH]c2ccccc12 | > 19.5 µM (inactive)
Clc1ccc(C(Cn2ccnc2)OCc2csc3c(Cl)cccc23)c(Cl)c1 (stereo not given) | 3.16 µM
Cc1cccc(OCc2n(CC(=O)OC3CC(C)CCC3C(C)C)c3ccccc3[n+]2C)c1 (stereo not given) | 3.47 µM
CCC1CSC(Nc2ccc(C(=O)/C=C/c3cccc(C)c3)cc2)=N1 (stereo not given) | 5.56 µM
COc1c(CC=C(C)C)cc(C2CC(=O)c3c(O)cc(O)cc3O2)cc1CC=C(C)C (stereo not given) | 3.65 µM
CC(C)c1ccc(/C=C/C(=O)NC2=NCCS2)cc1 | > 19.5 µM (inactive)
COc1ccc(-c2nn(-c3ccccc3)cc2/C=C2/SC(=S)N(CCC(=O)O)C2=O)c(C)c1 | 8.18 µM
COc1ccc(OC)c(NC(=O)c2nnn(Cc3ccccc3C)c2N)c1 | 3.61 µM
O=Nc1c(O)n(Cc2ccc(Cl)c(Cl)c2)c2ccccc12 | 6.85 µM
CC/C(=N\Nc1ccccc1)c1c(O)n(-c2ccccc2)c(=O)[nH]c1=O | 2.16 µM
CCc1ccc2nc(N(CCCN(C)C)C(=O)c3ccc(S(=O)(=O)N4CCCc5ccccc54)cc3)sc2c1 | 6.98 µM

From PubChem BioAssay AID463074 (Broad Institute, 2010)
